Data taken from ChEMBL document CHEMBL3217551, “A concise synthesis of the potent inflammatory mediator 5-oxo-ETE” (Medchemcomm, 2012).

Experiments:
[1] = Stability of the compound after 48 hrs by NMR spectroscopy; format: physicochemical
[2] = Stability of the compound after 36 hrs by NMR spectroscopy; format: physicochemical
[3] = Stability of the compound in DMSO-d6 at room temperature after 4 to 21 days by NMR spectroscopy in presence of CDCl3; format: ADME
Oxoeicosanoid receptor 1 = Oxoeicosanoid receptor 1 (Homo sapiens, UniProt Q8TDS5); experiment: Agonist activity at OXE receptor (unknown origin) expressed in HEK293 cells co-expressing Galpha subunit G16 assessed as calcium mobilization using Oregon Green 488 BAPTA-1/AM by fluorescence assay; format: functional, cell-based
[4] = Stability of the compound at room temperature after 19 days by NMR spectroscopy in presence of CDCl3; format: ADME; settings: 456 h

Oxoeicosanoid receptor 1, sequence (Q8TDS5 whole entry): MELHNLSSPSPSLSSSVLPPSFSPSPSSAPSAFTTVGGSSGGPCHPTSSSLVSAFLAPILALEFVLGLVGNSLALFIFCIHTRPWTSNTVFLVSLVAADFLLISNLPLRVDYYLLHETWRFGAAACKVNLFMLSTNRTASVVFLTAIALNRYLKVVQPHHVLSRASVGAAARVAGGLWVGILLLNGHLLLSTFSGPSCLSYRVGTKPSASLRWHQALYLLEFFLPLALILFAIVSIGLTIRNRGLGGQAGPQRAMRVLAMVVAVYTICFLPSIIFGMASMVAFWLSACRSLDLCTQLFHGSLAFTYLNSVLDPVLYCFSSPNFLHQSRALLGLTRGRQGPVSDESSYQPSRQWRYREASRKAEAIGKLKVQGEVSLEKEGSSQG

Stability [1]: Unstable
Stability [2]: Stable
Stability [3]: Stable
EC50 (Oxoeicosanoid receptor 1): 67 nM
Stability [4]: Stable
Compound: CCCCC/C=C\C/C=C\C/C=C\C=C\C(=O)CCCC(=O)O [5-OXO-ETE]
